# Data published in US9714247B2, “Multiple kinase pathway inhibitors” (Mannkind Corporation, priority 2012, dated 2017).
# Where two headings read alike, the source gives them in different places.
# What was measured:
# DoHH2 = experiment: CellTiter-Glo proliferation/viability assay; type: cell-based, human; conditions: Homo sapiens, DOHH-2; 48 hrs; read-out: DoHH2 EC50
# Ramos = experiment: CellTiter-Glo proliferation/viability assay; type: cell-based, human; conditions: read-out: Ramos EC50
# Src = Src (Homo sapiens (Human), UniProt P12931); experiment: biochemical
# Chain of Src (P12931 whole entry, looked up): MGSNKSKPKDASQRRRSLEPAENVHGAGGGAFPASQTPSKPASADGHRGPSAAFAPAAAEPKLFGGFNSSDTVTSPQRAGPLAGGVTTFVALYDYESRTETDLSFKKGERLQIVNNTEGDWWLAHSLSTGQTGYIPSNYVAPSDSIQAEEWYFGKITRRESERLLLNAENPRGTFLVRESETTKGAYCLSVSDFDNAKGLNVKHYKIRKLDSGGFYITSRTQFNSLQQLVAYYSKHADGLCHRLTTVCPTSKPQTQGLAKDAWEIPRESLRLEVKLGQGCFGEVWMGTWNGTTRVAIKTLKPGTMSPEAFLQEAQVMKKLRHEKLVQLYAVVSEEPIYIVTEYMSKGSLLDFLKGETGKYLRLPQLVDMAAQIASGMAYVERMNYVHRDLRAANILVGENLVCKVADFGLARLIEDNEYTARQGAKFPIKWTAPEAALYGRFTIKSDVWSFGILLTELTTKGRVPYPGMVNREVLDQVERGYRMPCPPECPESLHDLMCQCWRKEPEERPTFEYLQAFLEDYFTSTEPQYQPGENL
# Lyn [1] = target: T1, Lyn (Homo sapiens (Human), UniProt P07948); experiment: biochemical
# T1 sequence (P07948 whole entry): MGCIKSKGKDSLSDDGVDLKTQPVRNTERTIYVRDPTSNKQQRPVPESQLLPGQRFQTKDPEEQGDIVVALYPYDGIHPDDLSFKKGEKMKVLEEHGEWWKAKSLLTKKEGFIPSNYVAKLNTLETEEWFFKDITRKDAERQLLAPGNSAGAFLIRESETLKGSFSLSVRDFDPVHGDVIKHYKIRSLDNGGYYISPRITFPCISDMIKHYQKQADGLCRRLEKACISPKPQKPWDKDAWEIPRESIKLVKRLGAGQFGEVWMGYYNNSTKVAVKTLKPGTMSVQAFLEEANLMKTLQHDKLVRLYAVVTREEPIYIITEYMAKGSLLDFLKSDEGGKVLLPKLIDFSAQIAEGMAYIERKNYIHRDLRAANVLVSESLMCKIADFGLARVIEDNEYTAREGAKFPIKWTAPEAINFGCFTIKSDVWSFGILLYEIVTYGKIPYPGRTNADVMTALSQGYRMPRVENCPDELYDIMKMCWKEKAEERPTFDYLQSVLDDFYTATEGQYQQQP
# BTK = BTK (Homo sapiens (Human), UniProt Q06187)
# Chain of BTK (Q06187 whole entry): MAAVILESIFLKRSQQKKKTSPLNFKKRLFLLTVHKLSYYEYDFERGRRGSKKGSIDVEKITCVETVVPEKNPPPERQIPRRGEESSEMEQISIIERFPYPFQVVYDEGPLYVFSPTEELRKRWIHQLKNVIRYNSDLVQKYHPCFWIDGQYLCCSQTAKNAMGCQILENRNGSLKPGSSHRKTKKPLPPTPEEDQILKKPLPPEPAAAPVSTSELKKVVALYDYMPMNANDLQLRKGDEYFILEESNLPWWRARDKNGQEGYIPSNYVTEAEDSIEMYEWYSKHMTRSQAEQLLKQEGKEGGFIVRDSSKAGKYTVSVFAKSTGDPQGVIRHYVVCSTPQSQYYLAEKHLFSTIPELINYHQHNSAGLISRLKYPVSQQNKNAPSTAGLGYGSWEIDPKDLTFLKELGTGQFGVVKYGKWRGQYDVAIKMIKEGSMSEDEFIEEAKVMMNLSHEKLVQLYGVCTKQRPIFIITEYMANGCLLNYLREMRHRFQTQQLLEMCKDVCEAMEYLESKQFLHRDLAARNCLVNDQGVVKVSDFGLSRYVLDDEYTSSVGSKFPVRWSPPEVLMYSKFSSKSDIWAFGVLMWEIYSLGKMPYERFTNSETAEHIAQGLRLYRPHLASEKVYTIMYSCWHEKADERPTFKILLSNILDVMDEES
# Lyn [2] = target: T1, Lyn; conditions: read-out: Lyn IC50
SMILES,"EC50 (Ramos; Homo sapiens, Ramos, 48 h) [µM]",IC50 (Src) [µM],IC50 (Lyn [1]; Lyn IC50) [µM],EC50 (Ramos; 48 hrs) [µM],IC50 (BTK) [µM],IC50 (Lyn [1]) [µM],"EC50 (Ramos; Homo sapiens, Ramos, 48 hrs) [µM]",IC50 (BTK; read-out: BTK IC50) [µM],IC50 (Lyn [2]) [µM],EC50 (DoHH2) [µM]
"CCn1c(=O)c(-c2ccccc2)cc2cnc(Nc3cc(N4CCN(CCO)CC4)nc(C)n3)cc21 [Compound 5, 1-Ethyl-7-{6-[4-(2-hydroxy-ethyl)-piperazin-1-yl]-2-methyl-pyrimidin-4-ylamino}-3-phenyl-1H-[1,6]naphthyridin-2-one]",> 10,1 to 5,–,–,0.1 to 1,0.1 to 1,–,–,–,1 to 10
"CCn1c(=O)c(-c2ccccc2)cc2cnc(Nc3cnccn3)cc21 [Compound 6, 1-Ethyl-3-phenyl-7-(pyrazin-2-ylamino)-1H-[1,6]naphthyridin-2-one]",–,1 to 5,–,–,1 to 5,0.1 to 1,> 10,–,–,> 10
"CCn1c(=O)c(-c2ccccc2)cc2cnc(Nc3ccccn3)cc21 [Compound 7, 1-Ethyl-3-phenyl-7-(pyridin-2-ylamino)-1H-[1,6]naphthyridin-2-one]",> 10,0.1 to 1,–,–,0.1 to 1,1 to 5,–,–,–,1 to 10
"CCN(CC)CCOc1ccc(Nc2cc3[nH]c(=O)c(-c4ccccc4)cc3cn2)nc1 [Compound 14, 7-[5-(2-Diethylamino-ethoxy)-pyridin-2-ylamino]-3-phenyl-1H-[1,6]naphthyridin-2-one]",–,0.1 to 1,–,–,–,0.1 to 1,> 10,< 0.1,–,1 to 10
"CCn1c(=O)c(C2CC2)cc2cnc(Nc3ccc(C)cn3)cc21 [Compound 30, 3-Cyclopropyl-1-ethyl-7-(5-methyl-pyridin-2-ylamino)-1H-[1,6]naphthaayridin-2-one]",1 to 10,0.1 to 1,–,–,–,1 to 5,–,> 5,–,1 to 10
CCn1c(=O)c(C(C)=O)cc2cnc(Nc3ccc(C)cn3)cc21 [Compound 33],–,1 to 5,–,–,–,–,> 10,> 5,> 5,> 10
CCn1c(=O)c(C#CC(C)(C)C)cc2cnc(Nc3ccc(C)cn3)cc21 [Compound 39],1 to 10,0.1 to 1,–,–,–,–,–,> 5,> 5,1 to 10
"CCn1c(=O)c(-c2ccc(C)cc2)cc2cnc(Nc3ccc(C)cn3)cc21 [Compound 40, 1-ethyl-7-(5-methylpyridin-2-ylamino)-3-p-tolyl-1,6-naphthyridin-2(1H)-one]",> 10,0.1 to 1,–,–,–,–,–,> 5,> 5,> 10
"CCn1c(=O)c(-c2ccccc2)cc2cnc(Nc3ccc(N4CCOCC4)cn3)cc21 [Compound 44, 1-Ethyl-7-(5-morpholin-4-yl-pyridin-2-ylamino)-3-phenyl-1H-[1,6]naphthyridin-2-one]",–,0.1 to 1,–,–,–,0.1 to 1,1 to 10,> 5,–,< 1
"CCn1c(=O)c(-c2ccccc2)cc2cnc(Nc3ccc(OCCN(C)C)cn3)cc21 [Compound 48, 7-[5-(2-Dimethylamino-ethoxy)-pyridin-2-ylamino]-1-ethyl-3-phenyl-1H-[1,6]naphthyridin-2-one]",–,1 to 5,–,–,1 to 5,0.1 to 1,> 10,–,–,1 to 10
"CCN(CC)CCOc1ccc(Nc2cc3[nH]c(=O)c(C(C)C)cc3cn2)nc1 [Compound 49, 7-(5-(2-(diethylamino)ethoxy)pyridin-2-ylamino)-3-isopropyl-1,6-naphthyridin-2(1H)-one]",> 10,0.1 to 1,–,–,1 to 5,0.1 to 1,–,–,–,1 to 10

# More lines, main results first:
"EC50 (Ramos; Homo sapiens, Ramos, 48 h) [µM]",IC50 (Src) [µM],IC50 (Lyn [1]; Lyn IC50) [µM],EC50 (Ramos; 48 hrs) [µM],IC50 (BTK) [µM],IC50 (Lyn [1]) [µM],"EC50 (Ramos; Homo sapiens, Ramos, 48 hrs) [µM]",IC50 (BTK; read-out: BTK IC50) [µM],IC50 (Lyn [2]) [µM],SMILES,EC50 (DoHH2) [µM]
1 to 10,< 0.1,0.1 to 1,–,–,–,–,–,–,"O=c1c(-c2c(F)cccc2F)cc2cnc(Nc3ccc(F)cn3)cc2n1C1CCOC1 (single isomer, unassigned) [Compound 141, (S or R)-3-(2,6-difluorophenyl)-7-((5-fluoropyridin-2-yl)amino)-1-(tetrahydrofuran-3-yl)-1,6-naphthyridin-2(1H)-one]",< 1
–,< 0.1,< 0.1,> 10,< 0.1,–,–,–,–,"CCN(CC)CCOc1ccc(Nc2cc3c(cn2)cc(-c2c(F)cccc2F)c(=O)n3C2CCOC2)nc1 (single isomer, unassigned) [Compound 143, (S or R)-7-((5-(2-(diethylamino)ethoxy)pyridin-2-yl)amino)-3-(2,6-difluorophenyl)-1-(tetrahydrofuran-3-yl)-1,6-naphthyridin-2(1H)-one]",< 1
1 to 10,< 0.1,< 0.1,–,< 0.1,–,–,–,–,"CCN(CC)CCOc1ccc(Nc2cc3c(cn2)cc(-c2c(Cl)cccc2Cl)c(=O)n3C2CCOC2)nc1 (single isomer, unassigned) [Compound 145, (S or R)-3-(2,6-dichlorophenyl)-7-((5-(2-(diethylamino)ethoxy)pyridin-2-yl)amino)-1-(tetrahydrofuran-3-yl)-1,6-naphthyridin-2(1H)-one]",< 1
> 10,< 0.1,–,–,< 0.1,< 0.1,–,–,–,"O=c1c(-c2c(Cl)cccc2Cl)cc2cnc(Nc3ccc(F)cn3)cc2n1C1CCOC1 (single isomer, unassigned) [Compound 147, (S or R)-3-(2,6-dichlorophenyl)-7-((5-fluoropyridin-2-yl)amino)-1-(tetrahydrofuran-3-yl)-1,6-naphthyridin-2(1H)-one]",< 1
–,0.1 to 1,–,–,–,0.1 to 1,> 10,–,–,"CCN(CC)CCOc1ccc(Nc2cc3c(cn2)cc(C(C)C)c(=O)n3CC)nc1 [Compound 50, 7-[5-(2-Diethylamino-ethoxy)-pyridin-2-ylamino]-1-ethyl-3-isopropyl-1H-[1,6]naphthyridin-2-one]",1 to 10
–,0.1 to 1,–,–,1 to 5,–,> 10,–,> 5,"CCN(CC)CCOc1ccc(Nc2cc3c(cn2)cc(C(C)C)c(=O)n3CCOC)nc1 [Compound 57, 7-[5-(2-Diethylamino-ethoxy)-pyridin-2-ylamino]-3-isopropyl-1-(2-methoxy-ethyl)-1H-[1,6]naphthyridin-2-one]",1 to 10
> 10,1 to 5,1 to 5,–,–,–,–,–,–,"CN1CCC(n2c(=O)c(-c3c(F)cccc3F)cc3cnc(Nc4ccc(F)cn4)cc32)C1 (stereo not drawn) [Compound 85, 3-(2,6-difluorophenyl)-7-((5-fluoropyridin-2-yl)amino)-1-(1-methylpyrrolidin-3-yl)-1,6-naphthyridin-2(1H)-one]",1 to 10
> 10,1 to 5,–,–,0.1 to 1,–,–,–,> 5,"COCCn1c(=O)c(-c2c(F)cccc2F)cc2cnc(Nc3ccc(F)cn3)cc21 [Compound 126, 3-(2,6-difluorophenyl)-7-((5-fluoropyridin-2-yl)amino)-1-(2-methoxyethyl)-1,6-naphthyridin-2(1H)-one]",1 to 10
–,0.1 to 1,–,–,–,0.1 to 1,> 10,–,–,"O=c1c(-c2c(F)cccc2F)cc2cnc(Nc3ccc(F)cn3)cc2n1[C@@H]1CCNC1 [Compound 151, (R)-3-(2,6-difluorophenyl)-7-((5-fluoropyridin-2-yl)amino)-1-(pyrrolidin-3-yl)-1,6-naphthyridin-2(1H)-one]",1 to 10
